From patent publication US12427210B2, “Compounds comprising a fibroblast activation protein ligand and use thereof” (priority 2019, dated 2025) come the findings set out here.

One test deals with KV channel. Particulars: 10 μM.
The target in the next test is M1 (h) (Homo sapiens, UniProt P11229). Briefly: biochemical. Particulars: read-out: % Inhibition of Specific Binding.
The next test addresses M2 (h) (Homo sapiens, UniProt P08172). Briefly: biochemical. The note with it: read-out: % Inhibition of Specific Binding.
Another test concerns the target kappa (h) (KOP) (Homo sapiens, UniProt P41145). Briefly: biochemical. The note with it: read-out: % Inhibition of Specific Binding.
The target of test [1] is norepinephrine transporter (h) (Homo sapiens, UniProt P23975). The experiment in a line: biochemical. Particulars: read-out: % Inhibition of Specific Binding.
norepinephrine transporter (h), sequence (P23975 whole entry): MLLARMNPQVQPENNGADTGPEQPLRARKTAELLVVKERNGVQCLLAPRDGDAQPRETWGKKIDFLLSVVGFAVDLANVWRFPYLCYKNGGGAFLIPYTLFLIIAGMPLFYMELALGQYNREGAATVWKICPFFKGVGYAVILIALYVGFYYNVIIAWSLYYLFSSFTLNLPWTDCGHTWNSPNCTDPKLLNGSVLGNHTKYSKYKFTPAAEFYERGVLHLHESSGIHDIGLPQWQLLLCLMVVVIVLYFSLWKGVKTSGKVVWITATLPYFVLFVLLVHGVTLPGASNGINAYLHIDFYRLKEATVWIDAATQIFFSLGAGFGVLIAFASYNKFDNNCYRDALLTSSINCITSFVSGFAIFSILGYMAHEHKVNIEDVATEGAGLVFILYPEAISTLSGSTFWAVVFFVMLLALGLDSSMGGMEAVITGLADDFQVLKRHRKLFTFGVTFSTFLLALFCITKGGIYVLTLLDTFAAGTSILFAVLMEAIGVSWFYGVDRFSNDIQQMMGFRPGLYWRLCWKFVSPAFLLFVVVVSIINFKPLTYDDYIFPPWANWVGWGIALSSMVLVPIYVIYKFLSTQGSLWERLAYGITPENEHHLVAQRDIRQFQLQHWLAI
For the next test, the target named is Lck kinase (h) (Homo sapiens, UniProt P06239). The experiment in a line: biochemical. The note with it: read-out: % Inhibition of Specific Binding.
Lck kinase (h), sequence (P06239 whole entry): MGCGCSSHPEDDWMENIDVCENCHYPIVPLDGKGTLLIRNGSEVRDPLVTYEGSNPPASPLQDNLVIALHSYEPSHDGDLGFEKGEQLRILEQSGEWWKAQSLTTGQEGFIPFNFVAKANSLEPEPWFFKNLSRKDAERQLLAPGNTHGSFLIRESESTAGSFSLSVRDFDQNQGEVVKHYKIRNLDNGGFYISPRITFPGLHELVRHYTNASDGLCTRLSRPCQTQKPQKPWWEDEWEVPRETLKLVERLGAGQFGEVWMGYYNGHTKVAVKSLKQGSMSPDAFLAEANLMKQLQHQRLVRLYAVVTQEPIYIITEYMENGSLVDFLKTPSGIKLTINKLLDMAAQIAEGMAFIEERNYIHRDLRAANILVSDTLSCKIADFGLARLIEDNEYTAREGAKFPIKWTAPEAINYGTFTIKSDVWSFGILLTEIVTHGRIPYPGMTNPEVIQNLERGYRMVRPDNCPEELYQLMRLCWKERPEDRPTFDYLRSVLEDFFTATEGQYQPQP
Another test concerns the target T1, Caspase-6 (Homo sapiens, UniProt P55212).
T1 sequence (P55212 24-179 limits assumed): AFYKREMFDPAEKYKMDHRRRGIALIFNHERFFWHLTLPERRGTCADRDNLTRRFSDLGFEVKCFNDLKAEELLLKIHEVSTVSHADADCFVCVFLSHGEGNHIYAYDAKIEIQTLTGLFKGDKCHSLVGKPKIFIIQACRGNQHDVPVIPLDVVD
T1 sequence (P55212 194-293 limits assumed): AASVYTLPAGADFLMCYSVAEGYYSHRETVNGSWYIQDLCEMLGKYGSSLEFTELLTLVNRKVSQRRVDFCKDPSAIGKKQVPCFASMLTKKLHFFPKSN
The experiment in a line: biochemical. Particulars: read-out: Percentage inhibition (%).

A further test addresses T2, A20 (Homo sapiens, UniProt P21580).
T2 sequence (P21580 1-790): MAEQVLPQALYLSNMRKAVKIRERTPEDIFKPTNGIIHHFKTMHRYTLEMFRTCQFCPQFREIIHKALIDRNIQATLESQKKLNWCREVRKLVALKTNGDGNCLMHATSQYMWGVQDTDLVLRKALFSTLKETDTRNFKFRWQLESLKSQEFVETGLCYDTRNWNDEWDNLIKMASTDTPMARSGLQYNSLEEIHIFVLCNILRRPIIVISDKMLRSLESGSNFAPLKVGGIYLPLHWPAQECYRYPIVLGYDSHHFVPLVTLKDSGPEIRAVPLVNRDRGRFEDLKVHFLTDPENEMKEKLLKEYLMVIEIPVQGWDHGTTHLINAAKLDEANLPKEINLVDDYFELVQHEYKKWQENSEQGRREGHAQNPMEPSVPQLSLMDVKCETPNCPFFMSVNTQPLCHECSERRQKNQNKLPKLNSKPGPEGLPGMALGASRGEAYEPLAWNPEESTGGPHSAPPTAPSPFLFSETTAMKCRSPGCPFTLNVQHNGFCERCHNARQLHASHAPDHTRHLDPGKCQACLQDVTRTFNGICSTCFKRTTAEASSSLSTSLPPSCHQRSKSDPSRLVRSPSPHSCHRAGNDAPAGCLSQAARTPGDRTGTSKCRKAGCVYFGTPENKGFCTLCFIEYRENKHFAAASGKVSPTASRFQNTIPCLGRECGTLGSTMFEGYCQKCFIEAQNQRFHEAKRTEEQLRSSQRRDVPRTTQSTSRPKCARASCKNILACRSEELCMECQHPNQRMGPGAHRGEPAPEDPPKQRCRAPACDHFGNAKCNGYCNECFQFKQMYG
Briefly: biochemical. Particulars: read-out: Percentage inhibition (%).

Test [2] deals with T3, Ubiquitin carboxy-terminal hydrolase L3 (Homo sapiens, UniProt P15374).
T3 sequence (P15374 1-230): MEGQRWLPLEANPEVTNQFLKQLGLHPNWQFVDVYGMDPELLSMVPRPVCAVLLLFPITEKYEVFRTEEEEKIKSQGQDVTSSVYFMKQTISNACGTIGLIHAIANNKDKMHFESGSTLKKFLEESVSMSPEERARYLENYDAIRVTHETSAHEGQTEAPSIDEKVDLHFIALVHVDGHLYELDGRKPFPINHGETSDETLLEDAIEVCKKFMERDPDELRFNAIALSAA
The experiment in a line: biochemical. Particulars: read-out: Percentage inhibition (%).

Test [3] has as its target T4, Ubiquitin carboxyl-terminal hydrolase 2 (Homo sapiens, UniProt O75604).
T4 sequence (O75604 1-605): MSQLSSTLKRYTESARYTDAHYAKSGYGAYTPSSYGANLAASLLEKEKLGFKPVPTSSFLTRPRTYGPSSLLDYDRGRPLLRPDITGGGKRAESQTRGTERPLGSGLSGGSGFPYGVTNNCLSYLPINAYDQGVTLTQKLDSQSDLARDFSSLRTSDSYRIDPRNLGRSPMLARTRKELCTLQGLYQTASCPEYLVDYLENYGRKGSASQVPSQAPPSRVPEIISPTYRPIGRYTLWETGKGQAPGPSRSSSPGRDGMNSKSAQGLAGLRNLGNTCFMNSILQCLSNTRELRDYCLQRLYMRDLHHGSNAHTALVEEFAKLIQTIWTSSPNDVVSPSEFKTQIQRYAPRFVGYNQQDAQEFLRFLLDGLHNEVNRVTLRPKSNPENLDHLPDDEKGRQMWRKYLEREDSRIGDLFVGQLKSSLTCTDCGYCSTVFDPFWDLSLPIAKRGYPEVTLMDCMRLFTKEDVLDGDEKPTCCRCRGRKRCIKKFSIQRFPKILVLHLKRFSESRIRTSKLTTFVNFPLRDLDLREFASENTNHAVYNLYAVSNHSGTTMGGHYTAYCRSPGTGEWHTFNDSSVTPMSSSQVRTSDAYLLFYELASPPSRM
Briefly: biochemical. The note with it: read-out: Percentage inhibition (%).

Numbered stars: 1 amine (or outer) side, 2 acyl side, 3 side chain; on linkers, the order of the positions; unused ones are H or OH. Bridge positions count the residues as written; N and C are the ends. Peptide text beside a SMILES is read from it. * marks the point of attachment. X1 = O=C(O)CN1CCN(CC(=O)O)CCN(CC(=O)N2CCN(Cc3cc(C[*:1])cc(C[*:2])c3)CC2)CCN(CC(=O)O)CC1; Hexanoyl = CCCCCC(=O)*

kappa (h) (KOP), sequence (P41145 whole entry): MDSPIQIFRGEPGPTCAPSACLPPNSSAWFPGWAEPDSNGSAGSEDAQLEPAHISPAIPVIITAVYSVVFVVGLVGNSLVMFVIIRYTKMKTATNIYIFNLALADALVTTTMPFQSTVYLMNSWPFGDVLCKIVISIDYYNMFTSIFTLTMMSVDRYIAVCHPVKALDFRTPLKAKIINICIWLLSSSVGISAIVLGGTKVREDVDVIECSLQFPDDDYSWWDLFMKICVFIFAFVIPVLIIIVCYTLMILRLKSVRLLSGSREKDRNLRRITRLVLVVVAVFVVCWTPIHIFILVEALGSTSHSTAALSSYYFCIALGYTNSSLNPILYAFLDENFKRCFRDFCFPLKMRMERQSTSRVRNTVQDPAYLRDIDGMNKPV
M1 (h), sequence (P11229 whole entry): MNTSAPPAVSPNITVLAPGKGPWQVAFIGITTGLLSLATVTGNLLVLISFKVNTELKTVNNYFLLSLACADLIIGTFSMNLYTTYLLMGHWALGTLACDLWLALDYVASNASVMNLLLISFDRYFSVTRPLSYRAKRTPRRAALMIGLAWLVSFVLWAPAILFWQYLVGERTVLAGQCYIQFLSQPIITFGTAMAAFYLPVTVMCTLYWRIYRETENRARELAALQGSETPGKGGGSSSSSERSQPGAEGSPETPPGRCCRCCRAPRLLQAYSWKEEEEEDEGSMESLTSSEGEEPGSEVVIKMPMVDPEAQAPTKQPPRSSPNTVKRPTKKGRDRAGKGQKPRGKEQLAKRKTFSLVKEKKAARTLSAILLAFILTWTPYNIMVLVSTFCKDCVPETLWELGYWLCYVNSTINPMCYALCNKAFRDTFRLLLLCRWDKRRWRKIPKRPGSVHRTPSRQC
M2 (h), sequence (P08172 whole entry): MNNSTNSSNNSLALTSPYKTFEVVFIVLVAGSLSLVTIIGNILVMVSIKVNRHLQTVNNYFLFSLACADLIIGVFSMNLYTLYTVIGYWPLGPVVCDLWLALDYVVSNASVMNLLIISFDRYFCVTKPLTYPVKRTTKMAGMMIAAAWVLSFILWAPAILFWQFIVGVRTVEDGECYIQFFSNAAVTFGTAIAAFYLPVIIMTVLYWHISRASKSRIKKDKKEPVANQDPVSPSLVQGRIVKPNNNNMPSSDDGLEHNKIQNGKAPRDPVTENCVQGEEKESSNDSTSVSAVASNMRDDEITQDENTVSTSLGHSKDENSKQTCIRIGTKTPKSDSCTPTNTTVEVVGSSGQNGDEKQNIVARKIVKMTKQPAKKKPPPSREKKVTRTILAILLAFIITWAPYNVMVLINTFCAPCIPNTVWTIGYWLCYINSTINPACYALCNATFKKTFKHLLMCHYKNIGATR

One may read the inhibition as the relative decrease from the control value, in per cent. Regarding `CCCCCC(=O)N[C@H]1CSCc2cc(cc(CN3CCN(C(=O)CN4CCN(CC(=O)O)CCN(CC(=O)O)CCN(CC(=O)O)CC4)CC3)c2)CSC[C@@H](C(=O)N[C@@H](CC(=O)O)C(N)=O)NC(=O)[C@H](Cc2ccccc2)NC(=O)[C@H](CCC(N)=O)NC(=O)[C@H]([C@@H](C)O)NC(=O)[C@@H]2CCCN2C(=O)[C@@H]2CCCN2C1=O` [Compound 3BP-3407, Hex-[Cys(tMeBn(DOTA-PP))-Pro-Pro-Thr-Gln-Phe-Cys]-Asp-NH2] (Hexanoyl-CPPTQFCD-NH2; linker 1-7 via X1), in the test on KV channel, the “% Inhibition of Specific Binding” value is recorded as −5%. The inhibition at 10 µM is 6% at M1 (h); -4% on M2 (h); 7% at kappa (h) (KOP); -8% in test [1]; 10% on Lck kinase (h); -1% on Caspase-6. The inhibition at 10 µM is -4% on A20, 14% in test [2] and 7% in test [3]. The inhibition at 1 µM at Caspase-6 is 1%; at A20, 2%; in test [2], -1%; in [3], 3%.
For `CCCCCC(=O)N[C@H]1CSCc2cc(CSCCNC(=O)CN3CCN(CC(=O)O)CCN(CC(=O)O)CCN(CC(=O)O)CC3)cc(c2)CSC[C@@H](C(=O)O)NC(=O)[C@H](Cc2ccccc2)NC(=O)[C@H](CCC(N)=O)NC(=O)[C@H]([C@@H](C)O)NC(=O)[C@@H]2CCCN2C(=O)[C@@H]2CCCN2C1=O` [Compound 3BP-3554, Hex-[Cys(tMeBn(DOTA-AET))-Pro-Pro-Thr-Gln-Phe-Cys]-OH], the “% Inhibition of Specific Binding” value with KV channel amounted to 4%. Also, the inhibition at 10 µM on M1 (h) is 8%; on M2 (h), 7%; on kappa (h) (KOP) it was 10%; in [1], -5%; on Lck kinase (h), -4%; at Caspase-6, -3%. For the same molecule, the results for the inhibition at 10 µM (on A20; in [2]; in [3]) were 0%, 0% and -1%, respectively. Further, the inhibition at 1 µM at Caspase-6 was 6%; on A20 it was 1%; in [2], 0%; in test [3] it was 0%.
